Patent US5863776A, “Method of preparing apoenzyme” (Research Development Foundation, priority 1996, dated 1999)
Changes are numbered by the printed parent chain. Names and notes keep the numbering of the source. “Also recorded” adds a separate entry of the source.

T1: MAO B (Homo sapiens, UniProt P27338)
T1 construct: expressed in transfected cells; host or cells: COS-7 (African green monkey), riboflavin-containing (Rib+) or riboflavin-depleted (Rib-), transient electroporation
T1 sequence (P27338 1-520): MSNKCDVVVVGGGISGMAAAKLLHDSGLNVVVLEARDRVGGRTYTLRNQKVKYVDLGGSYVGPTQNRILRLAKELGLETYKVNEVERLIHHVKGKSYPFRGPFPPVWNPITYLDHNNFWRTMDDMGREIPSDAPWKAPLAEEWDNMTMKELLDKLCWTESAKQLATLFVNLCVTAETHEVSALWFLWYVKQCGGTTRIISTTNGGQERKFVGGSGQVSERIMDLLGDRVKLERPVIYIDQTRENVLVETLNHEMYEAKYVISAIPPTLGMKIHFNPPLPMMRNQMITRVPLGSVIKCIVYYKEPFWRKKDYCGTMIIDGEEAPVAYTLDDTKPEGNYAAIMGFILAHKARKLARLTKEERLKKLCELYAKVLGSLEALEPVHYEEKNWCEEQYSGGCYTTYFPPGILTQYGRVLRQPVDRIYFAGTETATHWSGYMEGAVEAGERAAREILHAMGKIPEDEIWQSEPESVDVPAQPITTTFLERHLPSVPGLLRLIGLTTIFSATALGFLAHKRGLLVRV

B1: E34A: MAO B with Glu in position 34 replaced with Ala (protein, UniProt P27338 2-520, looked up, variant E34A)
Amine oxidase …: SNKCDVVVVGGGISGMAAAKLLHDSGLNVVVLAARDRVGGRTYTLRNQKVKYVDLGGSYVGPTQNRILRLAKELGLETYKVNEVERLIHHVKGKSYPFRGPFPPVWNPITYLDHNNFWRTMDDMGREIPSDAPWKAPLAEEWDNMTMKELLDKLCWTESAKQLATLFVNLCVTAETHEVSALWFLWYVKQCGGTTRIISTTNGGQERKFVGGSGQVSERIMDLLGDRVKLERPVIYIDQTRENVLVETLNHEMYEAKYVISAIPPTLGMKIHFNPPLPMMRNQMITRVPLGSVIKCIVYYKEPFWRKKDYCGTMIIDGEEAPVAYTLDDTKPEGNYAAIMGFILAHKARKLARLTKEERLKKLCELYAKVLGSLEALEPVHYEEKNWCEEQYSGGCYTTYFPPGILTQYGRVLRQPVDRIYFAGTETATHWSGYMEGAVEAGERAAREILHAMGKIPEDEIWQSEPESVDVPAQPITTTFLERHLPSVPGLLRLIGLTTIFSATALGFLAHKRGLLVRV
B2: E34Q: MAO B with Glu in position 34 replaced with Gln (protein, UniProt P27338 2-520, looked up, variant E34Q)
Amine oxidase …: B1 Amine oxidase … with A33Q

Columns and labels:
MAO B [1] = molecular target: T1, MAO B; test: FAD coupling in intact cells: MAO B enzymatic activity after electroporation of MAO B cDNA with cofactor into Rib^- COS-7 cells ([^14 C] benzylamine substrate); assay type: cell-based; set-up: Percent of Holo-MAO B Activity: concentration or dose not given beside the values
Description: (§1) Wild-type or mutant MAO B cDNAs were transiently transfected into COS-7 cells by electroporation (23) as previously described (18). Briefly, Rib^+ - or Rib^- COS-7 cells were harvested during late log phase growth and resuspended to a concentration of 3.1×10^6 cells/ml in either riboflavin-containing or riboflavin-free medium, respectively. Wild-type or mutant MAO B cDNAs ([…]) were added to 0.8 ml of cell suspension. […] Electroporation was carried out in a Bio-Rad Gene Pulser with a setting of 250 V and 500 μF. Cells were resuspended in 15 ml of riboflavin-containing or riboflavin-free medium and incubated at 37° C. with 5% CO2. Transfected COS-7 cells were harvested at 48 hours and homogenized in a lysis solution containing 20 mM Tris-HCl, 1 mM EDTA, 0.5 mM PMSF, pH 8.0. The homogenate was diluted with an equal volume of the same buffer supplemented with 300 mM NaCl to obtain a 150 mM final NaCl concentration. Triton X-100 (Pierce) was added to the lysate to give a final concentration of 0.25%, and the samples were allowed to stir for 50 min. at 4° C. to extract MAO B from the outer mitochondrial membrane. After Triton extraction, the lysate was centrifuged at 1300×g for 5 min. at 4° C. to remove insoluble cell debris.
(§2) MAO B activity was assayed radiometrically by a modification of the method of Wurtman and Axelrod (26) as described previously (18). Briefly, the reaction mixture contained 200 μl of 50 mM sodium phosphate buffer (pH 7.4), 3.6 nmole of 55 mCi/mmol [^14 C] benzylamine hydrochloride (Amersham), 10 nmoles of unlabeled benzylamine and 10 μl of cell lysate. Samples were run in triplicate, and one out of each set was denatured with […] of 6N HCl prior to the addition of substrate to serve as an internal control. All reactions were incubated for 9 minutes at 37° C., and terminated by the addition of 25 μl of 6N HCl. The reaction product was extracted with 500 μl of toluene, and an aliquot (200 μl) of the organic phase from each sample was counted in liquid scintillation fluid (Bio-Safe) in a Beckman LB 3801 scintillation counter.
FMN or riboflavin were also capable of restoring approximately 75% of MAO B holoenzyme activity. However, only 40% of MAO B holoenzyme activity was obtained by the addition of 8α-hydroxyriboflavin.
Various cofactors were added with MAO B cDNA into Rib^- COS7 cells

MAO B [2] = molecular target: T1, MAO B; test: Quantitation of expressed MAO B protein by ELISA in transfected COS-7 cells; assay type: cell-based; set-up: MAO B Expressed: unit not given here; settings: cofactor added with MAO B cDNA into Rib^- COS-7 cells; 48 hours; mean ± SE, three experiments
Description: Total protein concentrations of samples containing MAO B holoenzyme, apoenzyme, or variant MAO Bs were determined by a MicroBCA kit (Pierce). All samples were then adjusted to equal protein concentrations and assayed for MAO B protein by ELISA using a modification of the method of Yeomanson and Billett (25) as described previously (18).
MAO B cDNA was expressed sequentially at different time intervals in these cells during this riboflavin depletion process (FIG. 2). Each data point in FIG. 2 represents an individual expression assay. For each assay, a sample of COS-7 cells grown in riboflavin-free medium were transfected with MAO B cDNA via electroporation. Concurrently, Rib^+ COS-7 cells were transfected with MAO B cDNA to serve as a control. Following incubation for 48 hours, the cells were homogenized and assays were performed to determine protein concentration, MAO B concentration by ELISA using polyclonal antibodies, and MAO B activity using [^14 C] benzylamine.
An equal amount of MAO B cDNA (15 μg) was expressed in both types of […]

MAO B [3] = molecular target: T1, MAO B; test: FAD coupling in vitro (flavinylation assay in cell lysate, 30° C.); assay type: biochemical; settings: 30° C.
Description: (- - - x - - - ). […] The enzymatic activity of each sample was determined at 1 hour time intervals using [^14 C] benzylamine as substrate.
Apo-MAO B was obtained by expressing MAO B cDNA in Rib^- COS-7 cells. The cells were then harvested and homogenized as described above. One half of the lysate was stirred in the presence of 0.25% Triton X-100 at 4° C. for 50 min. to extract apo-MAO B from the outer mitochondrial membrane. The second half of the lysate was not extracted with Triton X-100 to permit MAO B to remain in the membrane. […] Assays were also carried out in the presence of an energy mixture (10 mM ATP, 32 mM PEP and 2.4 μg pyruvate kinase) and 25% glycerol in the reaction vials. Each sample was run in triplicate. After 1, 2 or 3 hours incubation at 30° C., each sample was assayed for MAO B activity as described below.
as §2

[4] = test system: L-gulono-g-lactone oxidase; settings: cited from earlier work
MAO B [5] = test: [^14 C] FAD incorporation into wild-type or mutant MAO B in Rib^- COS-7 cells (immunoprecipitation, fluorography); assay type: binding, human; settings: about 59 kDa; equal MAO B concentrations
Description: Mutagenesis was carried out by the method of Deng and Nickoloff (22) using a Transformer Site-directed Mutagenesis kit (Clontech). Glu in position 34 was replaced with Asp (E34D), Gln (E34Q), or Ala (E34A), and Val in position 10 was replaced with Ile (V10I) as described by Kwan et al. (18).
as §1
Transfected Rib^+ - or Rib^- COS-7 cells were homogenized, and extracted with 0.25% Triton X-100 for 50 minutes at 4° C. The cell lysates were centrifuged at 1300×g for 5 minutes, and an aliqout of each supernatant was analyzed for MAO B concentration by ELISA. All supernatants were then adjusted to equal MAO B concentration and incubated with polyclonal goat anti-MAO B antibody (10 μg) overnight at 4° C. Protein-G Sepharose beads (Pierce) were added (50 μl) and incubation was continued for 3 hours. The protein-G Sepharose/goat antibody/MAO B immmunocomplex was collected by centrifugation at 10,000×g for 20 seconds and washed 6 times with 150 μl of 20 mM Tris buffer, pH 8.0. The immunocomplex was then dissolved in SDS-PAGE sample buffer and analyzed by Western blot or fluorography.
The immunoprecipitated proteins (obtained as described above) were subjected to electrophoresis in a 10% SDS-polyacrylamide gel and examined by Western blotting as previously described (18). The immunoprecipitated proteins (obtained as described above) were subjected to electrophoresis in a 10% SDS-polyacrylamide gel. The SDS-PAGE gel was fixed by soaking in 7% acetic acid, 10% methanol, 83% H2 O for 1 hour, and then processed for fluorography as described by Bonner and Laskey (27). The dried gel was exposed to Kodak X-OMAT AR film at -80° C. for 2 weeks.
The expressed wild-type and variant MAO Bs were adjusted to equal concentrations using ELISA before immunoprecipitation, and then analyzed by fluorography. The amount of incorporation of [^14 C] […] FAD was incorporated into the enzyme.

MAO B [6] = settings: mutation at Glu^34; cited from earlier work

| Molecule | restoration of active MAO B (in words) (MAO B [1]; cofactor added with MAO B cDNA during electroporation) | Enzymatic Activity (MAO B [1]; cofactor added with MAO B cDNA into Rib^- COS-7 cells, 48 hours, mean ± SE, three experiments) | Percent of Holo-MAO B Activity (MAO B [1]; relative to holo-MAO B expressed in Rib^+ COS-7 cells, 2880 min) [%] | MAO B Expressed (MAO B [2]) | MAO B catalytic activity after adding exogenous FAD to apo-MAO B (MAO B [3]; Triton extracted or non-extracted lysate) | MAO B activity after adding exogenous FAD to apo-MAO B (MAO B [3]; with energy mixture and glycerol) | covalently bound FAD [4] | enzymatic activity upon addition of FAD [4] | [^14 C] FAD incorporation (band on fluorogram) (MAO B [5]) | loss of activity (in words) (MAO B [6]) |
| --- | --- | --- | --- | --- | --- | --- | --- | --- | --- | --- |
| Cc1cc2nc3c(=O)[nH]c(=O)nc-3n(C[C@H](O)[C@H](O)[C@H](O)COP(=O)(O)OP(=O)(O)OC[C@H]3O[C@@H](n4cnc5c(N)ncnc54)[C@H](O)[C@@H]3O)c2cc1C [FAD] | equal levels of MAO B activity; also recorded: active MAO B (containing FAD) was obtained | 0.85 ± 0.01 μmol benzylamine/minute/mg MAO | ~75 | 0.86 ± 0.03 | no MAO B catalytic activity was observed; also recorded: MAO B activity could not be regenerated | no MAO B activity was obtained; also recorded: unsuccessful | no covalently bound FAD could be obtained | Enzymatic activity was observed | – | – |
| B1 | – | – | – | – | – | – | – | – | did not exhibit bands | complete loss of activity; also recorded: devoid of enzymatic activity |
| B2 | – | – | – | – | – | – | – | – | did not exhibit bands | complete loss of activity; also recorded: devoid of enzymatic activity |
